In brackets after ≈: the same amount, converted by molar mass. Activity calls are given as the source filed them. The calls are words filed in the database; no cut-off is given here.
Tests used:
Monilinia laxa [1] = assay: Fungicidal activity against Monilinia laxa isolate MLP2 assessed as mean mycelial colony diameter at 25 degC after 4 days; format: functional
Monilinia laxa [2] = assay: Fungicidal activity against Monilinia laxa isolate MLP4 assessed as reduction in mycelial growth rate at 1 to 10 ug/ml at 31 degC after 5 days; format: functional, organism-based
Monilinia laxa [3] = assay: Fungicidal activity against Monilinia laxa isolate MLX4 assessed as reduction in mycelial growth rate at 25 degC after 4 days; format: functional, organism-based; settings: isolate MLX4, 96 h
Monilinia laxa [4] = assay: Fungicidal activity against Monilinia laxa isolate MLK12 assessed as mean number of conidia produced in the colony at 25 degC after 12 days by haemocytometer; format: functional
Monilinia laxa [5] = assay: Fungicidal activity against Monilinia laxa isolate MLB1 assessed as reduction in mycelial growth rate at 25 degC after 4 days; format: functional, organism-based; settings: isolate MLB1, 96 h
Monilinia laxa [6] = assay: Fungicidal activity against Monilinia laxa isolate MLG4 assessed as reduction in mycelial growth rate at 1 to 10 ug/ml at 31 degC after 5 days; format: functional, organism-based
Monilinia laxa [7] = assay: Fungicidal activity against Monilinia laxa isolate MLX4 assessed as reduction in mycelial growth rate at 1 to 10 ug/ml at 31 degC after 5 days; format: functional, organism-based
Monilinia laxa [8] = assay: Fungicidal activity against Monilinia laxa isolate MLP4 assessed as reduction in mycelial growth rate at 1 to 10 ug/ml at 25 to 28 degC; format: functional, organism-based
Monilinia laxa [9] = assay: Fungicidal activity against Monilinia laxa isolate MLBO1 assessed as reduction in mycelial growth rate at 25 degC after 4 days; format: functional, organism-based; settings: isolate MLBO1, 96 h
Monilinia laxa [10] = assay: Fungicidal activity against Monilinia laxa isolate MLG5 assessed as reduction in mycelial growth rate at 25 degC after 4 days; format: functional, organism-based; settings: isolate MLG5, 96 h
Monilinia laxa [11] = assay: Fungicidal activity against Monilinia laxa isolate MLK12 assessed as reduction in mycelial growth rate at 25 degC after 4 days; format: functional, organism-based; settings: isolate MLK12, 96 h
Monilinia laxa [12] = assay: Fungicidal activity against Monilinia laxa isolate MLX5 assessed as mycelial growth at 1 ug/ml at 25 degC after 4 days; format: functional
Monilinia laxa [13] = assay: Fungicidal activity against Monilinia laxa isolate MLP7 assessed as reduction in mycelial growth rate at 1 to 10 ug/ml at 28 degC after 8 days; format: functional, organism-based
Monilinia laxa [14] = assay: Fungicidal activity against Monilinia laxa isolate MLG2 assessed as reduction in mycelial growth rate at 25 degC after 4 days; format: functional, organism-based; settings: isolate MLG2, 96 h
Monilinia laxa [15] = assay: Fungicidal activity against Monilinia laxa isolate MLG7 assessed as reduction in mycelial growth rate at 25 degC after 4 days; format: functional, organism-based; settings: isolate MLG7, 96 h
Monilinia laxa [16] = assay: Fungicidal activity against Monilinia laxa isolate MLNS1 assessed as reduction in mycelial growth rate at 1 to 10 ug/ml at 31 degC after 5 days; format: functional, organism-based
Monilinia laxa [17] = assay: Fungicidal activity against Monilinia laxa isolate MLA1 assessed as reduction in mycelial growth rate at 1 to 10 ug/ml at 31 degC after 5 days; format: functional, organism-based
Monilinia laxa [18] = assay: Fungicidal activity against Monilinia laxa isolate B1 assessed as reduction in mycelial growth rate at 25 degC after 4 days; format: functional, organism-based; settings: isolate B1, 96 h
Monilinia laxa [19] = assay: Fungicidal activity against Monilinia laxa isolate KX3 assessed as reduction in mycelial growth rate at 25 degC after 4 days; format: functional, organism-based; settings: isolate KX3, 96 h
Monilinia laxa [20] = assay: Fungicidal activity against Monilinia laxa isolate MLK6 assessed as reduction in mycelial growth rate at 1 to 10 ug/ml at 25 to 28 degC; format: functional, organism-based
Monilinia laxa [21] = assay: Fungicidal activity against Monilinia laxa isolate KX4 assessed as reduction in mycelial growth rate at 1 to 10 ug/ml at 31 degC after 5 days; format: functional, organism-based
Monilinia laxa [22] = assay: Fungicidal activity against Monilinia laxa isolate MLB1 assessed as reduction in mycelial growth rate at 1 to 10 ug/ml at 28 degC after 8 days; format: functional, organism-based
Monilinia laxa [23] = assay: Fungicidal activity against Monilinia laxa isolate KX4 assessed as reduction in mycelial growth rate at 1 to 10 ug/ml at 28 degC after 8 days; format: functional, organism-based
Monilinia laxa [24] = assay: Fungicidal activity against Monilinia laxa isolate MLBO6 assessed as reduction in mycelial growth rate at 25 degC after 4 days; format: functional, organism-based; settings: isolate MLBO6, 96 h
Monilinia laxa [25] = assay: Fungicidal activity against Monilinia laxa isolate MLP4 assessed as reduction in mycelial growth rate at 1 to 10 ug/ml at 28 degC after 8 days; format: functional, organism-based
Monilinia laxa [26] = assay: Fungicidal activity against Monilinia laxa isolate MLNS2 assessed as reduction in mycelial growth rate at 1 to 10 ug/ml at 25 to 28 degC; format: functional, organism-based
Monilinia laxa [27] = assay: Fungicidal activity against Monilinia laxa isolate MLB1 assessed as reduction in mycelial growth rate at 1 to 10 ug/ml at 31 degC after 5 days; format: functional, organism-based
Monilinia laxa [28] = assay: Fungicidal activity against Monilinia laxa isolate MLK9 assessed as reduction in mycelial growth rate at 1 to 10 ug/ml at 31 degC after 5 days; format: functional, organism-based
Monilinia laxa [29] = assay: Fungicidal activity against Monilinia laxa isolate MLC2 assessed as mycelial growth at 1 ug/ml at 25 degC after 4 days; format: functional
Monilinia laxa [30] = assay: Fungicidal activity against Monilinia laxa isolate MLNS1 assessed as reduction in mycelial growth rate at 1 to 10 ug/ml at 28 degC after 8 days; format: functional, organism-based
Monilinia laxa [31] = assay: Fungicidal activity against Monilinia laxa isolate MLK7 assessed as reduction in mycelial growth rate at 25 degC after 4 days; format: functional, organism-based; settings: isolate MLK7, 96 h
Monilinia laxa [32] = assay: Fungicidal activity against Monilinia laxa isolate MLK10 assessed as reduction in mycelial growth rate at 25 degC after 4 days; format: functional, organism-based; settings: isolate MLK10, 96 h
Monilinia laxa [33] = assay: Fungicidal activity against Monilinia laxa isolate KX5 assessed as reduction in mycelial growth rate at 1 to 10 ug/ml at 31 degC after 5 days; format: functional, organism-based
Monilinia laxa [34] = assay: Fungicidal activity against Monilinia laxa isolate MLK10 assessed as reduction in mycelial growth rate at 1 to 10 ug/ml at 31 degC after 5 days; format: functional, organism-based
Monilinia laxa [35] = assay: Fungicidal activity against Monilinia laxa isolate MLG7 assessed as reduction in mycelial growth rate at 1 to 10 ug/ml at 31 degC after 5 days; format: functional, organism-based
Monilinia laxa [36] = assay: Fungicidal activity against Monilinia laxa isolate MLK1 assessed as reduction in mycelial growth rate at 25 degC after 4 days; format: functional, organism-based; settings: isolate MLK1, 96 h
Monilinia laxa [37] = assay: Fungicidal activity against Monilinia laxa isolate MLK24 assessed as reduction in mycelial growth rate at 1 to 10 ug/ml at 31 degC after 5 days; format: functional, organism-based
Monilinia laxa [38] = assay: Fungicidal activity against Monilinia laxa isolate MLP7 assessed as reduction in mycelial growth rate at 1 to 10 ug/ml at 25 to 28 degC; format: functional, organism-based
Monilinia laxa [39] = assay: Fungicidal activity against Monilinia laxa isolate MLX1 assessed as reduction in mycelial growth rate at 1 to 10 ug/ml at 31 degC after 5 days; format: functional, organism-based
Monilinia laxa [40] = assay: Fungicidal activity against Monilinia laxa isolate MLC4 assessed as reduction in mycelial growth rate at 25 degC after 4 days; format: functional, organism-based; settings: isolate MLC4, 96 h
Monilinia laxa [41] = assay: Fungicidal activity against Monilinia laxa isolate MLK4 assessed as reduction in mycelial growth rate at 1 to 10 ug/ml at 25 to 28 degC; format: functional, organism-based
Monilinia laxa [42] = assay: Fungicidal activity against Monilinia laxa isolate MLP2 assessed as mean number of conidia produced in the colony at 25 degC after 12 days by haemocytometer; format: functional

## COC(=O)Nc1nc2ccccc2[nH]1 [CARBENDAZIM]
Monilinia laxa [1]
  Activity: 25.5 mm
Monilinia laxa [2]
  inhibition: Active
Monilinia laxa [3]
  EC50: 0.11 µg/mL (≈ 0.575 µM)
Monilinia laxa [4]
  Activity: 4.7 /cm2
Monilinia laxa [5]
  EC50: > 50 µg/mL
Monilinia laxa [6]
  inhibition: Active
Monilinia laxa [7]
  inhibition: Active
Monilinia laxa [8]
  inhibition: inactive
Monilinia laxa [9]
  EC50: 0.11 µg/mL (≈ 0.575 µM)
Monilinia laxa [10]
  EC50: 0.09 µg/mL (≈ 0.471 µM)
Monilinia laxa [11]
  EC50: > 50 µg/mL
Monilinia laxa [12]
  Activity: 0%
Monilinia laxa [13]
  inhibition: inactive
Monilinia laxa [14]
  EC50: 0.08 µg/mL (≈ 0.418 µM)
Monilinia laxa [15]
  EC50: 0.12 µg/mL (≈ 0.628 µM)
Monilinia laxa [16]
  inhibition: Active
Monilinia laxa [17]
  inhibition: Active
Monilinia laxa [18]
  EC50: > 50 µg/mL
Monilinia laxa [19]
  EC50: 0.09 µg/mL (≈ 0.471 µM)
Monilinia laxa [20]
  inhibition: inactive
Monilinia laxa [21]
  inhibition: Active
Monilinia laxa [22]
  inhibition: inactive
Monilinia laxa [23]
  inhibition: inactive
Monilinia laxa [24]
  EC50: 0.12 µg/mL (≈ 0.628 µM)
Monilinia laxa [25]
  inhibition: inactive
Monilinia laxa [26]
  inhibition: inactive
Monilinia laxa [27]
  inhibition: Active
Monilinia laxa [28]
  inhibition: Active
Monilinia laxa [29]
  Activity: 98.28%
Monilinia laxa [30]
  inhibition: inactive
Monilinia laxa [31]
  EC50: 0.08 µg/mL (≈ 0.418 µM)
Monilinia laxa [32]
  EC50: 0.07 µg/mL (≈ 0.366 µM)
Monilinia laxa [33]
  inhibition: Active
Monilinia laxa [34]
  inhibition: Active
Monilinia laxa [35]
  inhibition: Active
Monilinia laxa [36]
  EC50: > 50 µg/mL
Monilinia laxa [37]
  inhibition: Active
Monilinia laxa [38]
  inhibition: inactive
Monilinia laxa [39]
  inhibition: Active
Monilinia laxa [40]
  EC50: 0.09 µg/mL (≈ 0.471 µM)
Monilinia laxa [41]
  inhibition: inactive
Monilinia laxa [42]
  Activity: 4.15 /cm2
